“Also recorded” adds a separate entry of the source.
Tests used:
[1] = target: T1, rat lens aldose reductase (Rattus norvegicus, UniProt P07943); test: inhibitory activity on rat lens aldose reductase (Experimental Example 1); type: biochemical; conditions: for IC50: pH 6.2, 10 mM DL-glyceraldehyde, 0.16 mM NADPH; for potency relative to reference compound A: ratio in words
T1 construct: rat lens aldose reductase; from tissue; host or cells: rat lens
Protocol: The inhibitory activities of hydantoin derivatives on rat lens aldose reductase were measured according to the procedure of Inagaki et al. (K. Inagaki et al., Arch. Biochem. Biophys., 216, 337 (1982)) with slight modifications. Assays were performed in 0.1M phosphate buffer (pH 6.2) containing 0.4M ammonium sulfate, 10 mM DL-glyceraldehyde, 0.16 mM nicotinamide adenine dinucleotide phosphate, reduced form (NADPH) and aldose reductase (0.010-0.016 units) in a total volume of 1.0 ml. To this mixture was added 10 μl of the solution of each hydantoin derivative to be tested, and the decrease in absorbance at 340 nm was measured with a spectrophotometer.
The concentrations of typical hydantoin derivatives of the present invention required to produce 50% inhibition are shown in table 1.

[2] = test system: Streptozotocin-Diabetic Rats; test: Hypoglycemic Effects in Streptozotocin-Diabetic Rats (Experimental Example 4); type: in vivo, rat (male Wistar); conditions: STZ-diabetic rats, 100 mg/kg oral; for inhibition in vivo at 100 mg/kg: Rattus norvegicus, 6 hrs after administration, read-out: Lowering rate of serum glucose (%)
Protocol: (§1) Diabetic rats were produced according to the method of Junod et al. (A. Junod et al., J. Clin. Invest., 48, 2129 (1969)). Briefly, male Wistar rats were given 26.5 mg/kg of streptozotocin (STZ) intravenously. Four days later, the rats with serum glucose levels of between 400 and 500 mg/dl were used. After being fasted for 4 hrs, groups of 5 diabetic rats were orally administered with the compounds of the present invention or gliclazide in a dose of 100 mg/kg. Blood sample were collected from the orbital vein before and 6 hrs after the administration. Serum glucose levels were determined by the enzymatic method with an autoanalyzer (Cobas Fara®, Roche).

[3] = test system: ICR strain mice; test: acute toxicity in mice (Experimental Example 3); type: in vivo; conditions: 1 g/kg, oral, groups of 5 ICR mice
Text: Hydantoin derivatives of the present invention were examined for acute toxicity.

[4] = target: T2, bovine lens aldose reductase (Bos taurus, UniProt P16116); test: inhibitory activity on bovine lens aldose reductase (Experimental Example 2); type: biochemical; conditions: for IC50: pH 6.2, 10 mM DL-glyceraldehyde, 0.16 mM NADPH
T2 construct: bovine lens aldose reductase preparation was used; from tissue; host or cells: bovine lens
Protocol: Assays were performed in 0.1M phosphate buffer (pH 6.2) containing 0.4M ammonium sulfate, 10 mM DL-glyceraldehyde, 0.16 mM nicotinamide adenine dinucleotide phosphate, reduced form (NADPH) and aldose reductase (0.010-0.016 units) in a total volume of 1.0 ml. To this mixture was added 10 μl of the solution of each hydantoin derivative to be tested, and the decrease in absorbance at 340 nm was measured with a spectrophotometer.

[5] = test system: Normal Rats; test: Hypoglycemic Effects in Normal Rats (Experimental Example 6); type: in vivo, rat (male Wistar); conditions: normal animals
Protocol: Groups of 5 male Wistar rats, after being fasted for 4 hrs, where orally administered with compound 38 or 47 of the present invention or gliclazide. Blood samples were collected from the orbital vein before, 1 hr and 6 hrs after the administration. Serum glucose levels were determined by the enzymatic method with an autoanalyzer (Cobas Fara®, Roche).

[6] = test system: Streptozotocin-Diabetic Rats; test: Hypolipidemic Effects in Streptozotocin-Diabetic Rats (Experimental Example 7); type: in vivo, rat (male Wistar); conditions: STZ-diabetic rats, 100 mg/kg oral for 2 weeks
Protocol: as §1
(§2) Diabetic rats were produced according to the method described previously. Groups of 5 diabetic rats were orally administered with compound 38 or 47 of the present invention at a dose of 100 mg/kg for 2 weeks. The rats were deprived of food 4 hrs before the last administration, and 6 hrs after the last administration, blood samples were collected from the orbital vein. Serum triglyceride (TG), non-esterified fatty acid (NEFA) and cholesterol (CHOL) levels were determined by the enzymatic method with an autoanalyzer (Cobas Fara®, Roche). In this experiment, each parameters of serum lipids in streptozotocin-diabetic rats increased by 40 % of normal rats in the mean value.

[7] = test system: Streptozotocin-Diabetic Rats; test: Ketone Body Lowering Effects in Streptozotocin-Diabetic Rats (Experimental Example 5); type: in vivo, rat (male Wistar); conditions: STZ-diabetic rats, oral for 2 weeks
Protocol: as §1
as §2, with “invention” for “invention at a dose of 100 mg/kg”, “total ketone body (KB)” for “triglyceride (TG), non-esterified fatty acid (NEFA) and cholesterol (CHOL)”, “experiment,” for “experiment, each parameters of”, “total ketone body levels” for “lipids”, “92” for “40”

| IC50 [1] [nM] | Compound | inhibition in vivo at 100 mg/kg [2] [%] | acute toxicity: change observed over the one-week period after administration [3] | IC50 [4] [nM] | also measured |
| --- | --- | --- | --- | --- | --- |
| 290 | O=C1CN(S(=O)(=O)c2ccc3ccccc3c2Cl)C(=O)N1 [Compound 1, 1-(1-chloronaphthalen-2-ylsulfonyl)hydantoin] | 37.2 | – | – | – |
| 190 | O=C1CN(S(=O)(=O)c2ccc3c(Cl)cccc3c2)C(=O)N1 [Compound 3, 1-(5-chloronaphthalen-2-ylsulfonyl)hydantoin] | 19 | – | – | – |
| 350 | O=C1CN(S(=O)(=O)c2cc3ccccc3cc2Br)C(=O)N1 [Compound 9, 1-(3-bromonaphthalen-2-ylsulfonyl)hydantoin] | 17.4 | – | – | – |
| 140 | Cc1cc2ccccc2cc1S(=O)(=O)N1CC(=O)NC1=O [Compound 12, 1-(3-methylnaphthalen-2-ylsulfonyl)hydantoin] | – | – | – | – |
| 27 | Cc1ccc2cc(S(=O)(=O)N3CC(=O)NC3=O)ccc2c1[N+](=O)[O-] [Compound 13, 1-(6-methyl-5-nitronaphthalen-2-yl-sulfonyl)hydantoin] | – | – | 100 | potency relative to reference compound A [1]: ten times or more potent; inhibitory activity against aldose reductase compared with reference compound B ([4]; in words): stronger inhibitory activities against aldose reductase |
| 350 | Cc1ccc2ccc(S(=O)(=O)N3CC(=O)NC3=O)cc2c1 [Compound 14, 1-(7-methylnaphthalen-2-ylsulfonyl)hydantoin] | – | – | – | – |
| 38 | COc1ccc2cc(S(=O)(=O)N3CC(=O)NC3=O)ccc2c1[N+](=O)[O-] [Compound 15, 1-(6-methoxy-5-nitronaphthalen-2-yl-sulfonyl)hydantoin] | – | – | 230 | potency relative to reference compound A [1]: ten times or more potent; inhibitory activity against aldose reductase compared with reference compound B ([4]; in words): stronger inhibitory activities against aldose reductase |
| – | O=C1CN(S(=O)(=O)c2cc3ccccc3o2)C(=O)N1 [Compound 19, 1-(benzo[b]furan-2-ylsulfonyl)hydantoin] | 52.1 | no change was observed | – | – |
| – | O=C1CN(S(=O)(=O)c2cc3cc(Cl)ccc3o2)C(=O)N1 [Compound 20, 1-(5-chlorobenzo[b]furan-2-ylsulfonyl)hydantoin] | 12.8 | no change was observed | 360 | – |
| – | O=C1CN(S(=O)(=O)c2cc3cc(Br)ccc3o2)C(=O)N1 [Compound 21, 1-(5-bromobenzo[b]furan-2-ylsulfonyl)hydantoin] | 22.3 | no change was observed | 300 | – |
| – | O=C1CN(S(=O)(=O)c2cc(Cl)sc2Cl)C(=O)N1 [Compound 24, 1-(2,5-dichlorothiophen-3-ylsulfonyl)hydantoin] | – | no change was observed | 290 | potency compared with compound 13 and 15 ([4]; in words): as potent as compound 13 and 15 |
| – | O=C1CN(S(=O)(=O)c2oc3ccccc3c2Br)C(=O)N1 [Compound 38, 1-(3-bromobenzo[b]furan-2-ylsulfonyl)hydantoin] | 33.5 | no change was observed | 160 | influence on serum glucose level of normal rats (in words) [5]: lesser influences on serum glucose level of normal rats; lowering of serum lipid levels (in words) [6]: lowering activities of serum triglyceride, non esterified fatty acid and cholesterol levels; lowering of serum total ketone body levels (in words) [7]: lowering activity of serum total ketone body levels |
| – | O=C1CN(S(=O)(=O)c2cc3c(Cl)cccc3s2)C(=O)N1 [Compound 40, 1-(4-chlorobenzo[b]thiophen-2-yl-sulfonyl)hydantoin] | 11 | no change was observed | 170 | – |
| – | O=C1CN(S(=O)(=O)c2cc3c(Cl)c(Cl)ccc3o2)C(=O)N1 [Compound 44, 1-(4,5-dichlorobenzo[b]furan-2-yl-sulfonyl)hydantoin] | 21.1 | no change was observed | 61 | – |
| – | O=C1CN(S(=O)(=O)c2cc3cc(Cl)c(Cl)cc3o2)C(=O)N1 [Compound 45, 1-(5,6-dichlorobenzo[b]furan-2-yl-sulfonyl)hydantoin] | 28.5 | no change was observed | 83 | – |
| – | O=C1CN(S(=O)(=O)c2oc3ccccc3c2Cl)C(=O)N1 [Compound 47, 1-(3-chlorobenzo[b]furan-2-ylsulfonyl)hydantoin] | 44.7 | – | – | influence on serum glucose level of normal rats (in words) [5]: lesser influences on serum glucose level of normal rats; lowering of serum lipid levels (in words) [6]: lowering activities of serum triglyceride, non esterified fatty acid and cholesterol levels; lowering of serum total ketone body levels (in words) [7]: lowering activity of serum total ketone body levels |
| 660 | O=C1CN(S(=O)(=O)c2ccc3ccccc3c2)C(=O)N1 [Compound A, 1-(naphthalene-2-ylsulfonyl)hydantoin, reference compound] | – | – | – | – |
| – | Cc1ccc(S(=O)(=O)NC(=O)NN2CC3CCCC3C2)cc1 (centres unmarked) [Compound C, gliclazide, reference compound] | 11 | – | – | influence on serum glucose level of normal rats (in words) [5]: significantly lowered serum glucose level of normal rats; also recorded: remarkable hypoglycemic activity in normal animals; hypoglycemic activity in diabetic animals (in words) [2]: less potent hypoglycemic activity than all compounds of the present invention |

| Compound | IC50 [1] [nM] | inhibition in vivo at 100 mg/kg [2] [%] | acute toxicity: change observed over the one-week period after administration [3] | IC50 [4] [nM] | also measured |
| --- | --- | --- | --- | --- | --- |
| O=C1CN(S(=O)(=O)c2cc3ccc(Cl)cc3cc2Cl)C(=O)N1 [Compound 7, 1-(3,6-dichloronaphthalen-2-ylsulfonyl)hydantoin] | 240 | 23.2 | no change was observed | – | – |
